According to patent publication US20210244735A1, “COMPOSITIONS AND METHODS FOR TREATING MYELOFIBROSIS” (Impact Biomedicines, Inc., priority 2010, published 2021):
“Also recorded” adds a separate entry of the source. Where a name gives a salt, the structure may show the parent alone.

What was measured:
[1] = tested on: subjects with MF; assay: Phase 1 dose-escalation study MF-TG101348-001 (and extension MF-TG101348-002): clinical response (spleen, leukocytosis, thrombocytosis, constitutional symptoms, bone marrow); format: in vivo, human; conditions: for subjects achieving a normal WBC count: following 6 cycles; for subjects achieving a normal platelet count: after 6 cycles; for subjects with minimum 25% decrease in palpable spleen size: intent-to-treat
Protocol: The key eligibility criteria for subjects included: Myelofibrosis (PMF or post-PV/ET MF); High-risk or intermediate-risk with symptomatic splenomegaly/unresponsive to available therapy; ECOG performance status ≤2; ANC≥1×10^9/L; Platelet count≥50×10^9/L; Serum creatinine ≤2 mg/dL; Total bilirubin ≤2 mg/dL; AST/ALT≤3X upper limit of normal.
All patients provided written informed consent.
(§1) Responses were measured every 4 weeks per International Working Group for MPN Research and Treatment (IWG-MRT) criteria (Tefferi A et al., Blood 108:1497-1503, 2006). Assessment of bone marrow histology was performed at baseline and every 24 weeks of therapy. Changes in JAK2V 617F allele burden in the granulocyte fraction of peripheral blood were measured as previously described (Kittur J et al., Cancer 109:2279-2284, 2007); the assessments were at baseline and every 4 weeks during the first 6 cycles, and every 6th cycle of therapy in the extension study.

[2] = Phase 1 study: plasma pharmacokinetics, non-compartmental analysis; format: in vivo, human
Protocol: Pharmacokinetics: The concentration—time curves of TG101348 in plasma were evaluated by a non-compartmental analysis (with the use of WinNonlin® software, version 5.2).

[3] = tested on: JAK2V617F allele burden; assay: Phase 1 study: JAK2V617F allele burden in granulocyte fraction of peripheral blood; format: in vivo, human
Protocol: as §1

[4] = tested on: IL-6, IL-8, IL-2 and TNF-α; assay: Phase 1 study: cytokine assessment by multiplexed sandwich ELISAs; format: in vivo, human; conditions: relative to baseline during treatment; dihydrochloride monohydrate
Protocol: Cytokine Assessment: Samples for cytokine measurement were collected at baseline and every 4 weeks thereafter. Cytokine levels were measured using multiplexed sandwich ELISAs (Millipore, St. Charles, Mo.).

[5] = Compatibility with capsule shells, accelerated stability; format: physicochemical; conditions: 250 mg filled capsules, 40° C./75% RH and 25° C./60% RH, t=1, 2, and 3 weeks
Protocol: Hard gelatin and hydroxypropylmethyl cellulose (HPMC) capsule shells (size […]) were filled with 250 mg of TG101348 di-HCl monohydrate. The filled capsules were placed on accelerated stability (40° C./75% relative humidity (RH) and 25° C./60% RH). The capsules were packaged into 30 mL (1 oz) amber high density polyethylene (HDPE) bottles.

[6] = Drug substance blend compatibility with fillers and lubricants; format: physicochemical; conditions: blends with lactose, mannitol, MCC Avicel PH102, MCC ProSolv 90 HD; magnesium stearate, Pruv; 60° C./ambient humidity
Protocol: A matrix of formulation blends was designed to study the compatibility of TG101348 di-HCl monohydrate with four fillers and two lubricants (Table 17). Blends were prepared at a scale of 2.5 g each by prescreening all components through a 500 μm sieve, blending all components except the lubricant using aTurbula T2B blender for 10 min at 22 rpm, screening the blend through a 500 μm sieve, blending for 10 min, adding lubricant (weight adjusted) and blending for 5 min The blends were manufactured and stored in 30 mL amber HDPE bottles under primary (60° C./ambient humidity) and backup conditions (40° C./75% RH, 25° C./60% RH, and 5° C.).

[7] = tested on: human caco-2 cells; assay: caco-2 permeability; format: in vitro ADME; conditions: caco-2 permeability data
[8] = tested on: serum EPO and TPO; assay: Phase 1 study: serum EPO and TPO levels; format: in vivo, human; conditions: after treatment initiation (data not shown)
[9] = MTD cohort, after 1 cycle (n=12)
[10] = MTD cohort, after 1 cycle, 8 subjects at baseline
[11] = MTD cohort, after 6 cycles (n=16)
[12] = at 3 months, 33 patients who started at >680 mg and completed at least 3 cycles
[13] = mean, 240 mg/day (n=3), Cycle 1 Day 28
[14] = mean, 360 mg/day (n=3), Cycle 1 Day 28
[15] = mean, 800 mg/day (n=5), Cycle 1 Day 28

Compound: Cc1cnc(Nc2ccc(OCCN3CCCC3)cc2)nc1Nc1cccc(S(=O)(=O)NC(C)(C)C)c1 [TG101348, N-tert-butyl-3-[(5-methyl-2-{[4-(2-pyrrolidin-1-ylethoxy)phenyl]amino}pyrimidin-4-yl)amino]benzenesulfonamide dihydrochloride monohydrate]
- normal WBC count at last follow-up visit ([1]; 21 patients with leukocytosis at baseline who started at ≥680 mg): 70%
- complete response in splenomegaly ([1]; Example 2 conclusions): ~30%
- proportion achieving ≥50% reduction in palpable splenomegaly ([1]; Example 2 conclusions): two-thirds
- subjects achieving CI ([1]; JAK2V617F-negative MF, 4 subjects who completed 6 cycles): 75%
- night sweats: complete resolution ([1]; MTD cohort, after 1 cycle): 64 % of subjects
- cough: complete resolution [1, 9]: 67%
- cough: improvement [1, 9]: 75%
- pruritus: complete resolution [1, 10]: 50%
- pruritus: improvement [1, 10]: 75%
- early satiety: complete resolution ([1]; MTD cohort, after 2 cycles (n=27)): 56%
- night sweats: complete resolution ([1]; MTD cohort, after 6 cycles (n=9)): 89%
- fatigue: complete resolution [1, 11]: 25%
- fatigue: improvement [1, 11]: 63%
- subjects with disease progression ([1]; all subjects): Three
- reduction in palpable spleen size at least 50% [1, 12]: 22 (67%) patients (%)
- spleen became non-palpable [1, 12]: 9 (27%) patients (%)
- normal WBC counts at follow-up visit ([1]; baseline WBC count >11×10^9/L, follow-up doses 360 to 680 mg/day): 73 % of subjects
- subjects achieving a normal WBC count ([1]; baseline leukocytosis (WBC >11×10^9/L), across doses (16 of 28)): 57%
- subjects achieving a normal WBC count ([1]; baseline leukocytosis, MTD cohort (13 of 18)): 72%
- effect on thrombocytosis ([1]; baseline platelet count >450×10^9/L): able to reduce platelet counts
- subjects achieving a normal platelet count ([1]; baseline thrombocytosis (platelet count >450×10^9/L), across doses (10 subjects)): 90%
- subjects achieving a normal platelet count ([1]; baseline thrombocytosis, MTD cohort (7 subjects)): 100%
- ≥50% decrease in palpable spleen size persistent for at least 8 weeks (Clinical Improvement per IWG-MRT) ([1]; by cycle 6, MTD cohort): 45 % of subjects
- subjects with minimum 25% decrease in palpable spleen size ([1]; by cycle 6, MTD cohort): 65%
- ≥50% decrease in palpable spleen size persistent for at least 8 weeks (Clinical Improvement per IWG-MRT) ([1]; by cycle 6, overall): 39 % of subjects
- subjects with minimum 25% decrease in palpable spleen size ([1]; by cycle 6, overall): 61%
- spleen responses (CI) ([1]; by cycle 12, MTD cohort): 50 % of subjects
- spleen responses (CI) ([1]; by cycle 12, overall): 48 % of subjects
- effect on constitutional symptoms (early satiety, fatigue, cough, pruritus, night sweats) ([1]; evaluable subjects, baseline versus last visit, dihydrochloride monohydrate): clinically significant benefit or resolution; also recorded: able to improve; also recorded: remarkable activity
- pruritus ([1]; one subject with JAK2V617F-positive PMF, started at 680 mg/day): complete resolution
- bone marrow fibrosis after 18 cycles ([1]; person, V617F negative PMF, baseline 3+, starting dose 240 mg/day, follow-up 440 mg/day): 0
- bone marrow cellularity after 18 cycles ([1]; person, V617F negative PMF, baseline 60%, starting dose 30 mg/day, follow-up 520 mg/day): 5-10%
- plasma concentration over at least 24 hours after the dose ([2]; 360 mg/day, Cycle 1 Day 28): above IC90
- plasma concentration over at least 24 hours after the dose ([2]; 520 mg/day, Cycle 1 Day 28): above 3×IC90
- increase of mean steady-state AUC0-t over a 27-fold increase in dose ([2]; in vivo): ~88 fold
- increase of mean steady-state C. over a 27-fold increase in dose ([2]; in vivo): approximately 54 fold
- λz (elimination rate constant) ([2]; mean, 30 mg/day (n=3), Cycle 1 Day 28): 0.0354 h⁻¹
- λz (elimination rate constant) ([2]; mean, 60 mg/day (n=3), Cycle 1 Day 28): 0.0456 h⁻¹
- λz (elimination rate constant) ([2]; mean, 120 mg/day (n=3), Cycle 1 Day 28): 0.0305 h⁻¹
- T1/2 (terminal half-life) [2, 13]: 20.77 h
- λz (elimination rate constant) [2, 13]: 0.0352 h⁻¹
- Cmax [2, 14]: 1717.33 ng/mL
- T1/2 (terminal half-life) [2, 14]: 21.39 h
- λz (elimination rate constant) [2, 14]: 0.0353 h⁻¹
- λz (elimination rate constant) ([2]; mean, 520 mg/day (n=3), Cycle 1 Day 28): 0.0343 h⁻¹
- λz (elimination rate constant) ([2]; mean, 680 mg/day (n=27), Cycle 1 Day 28): 0.0301 h⁻¹
- T1/2 (terminal half-life) [2, 15]: 23.99 h
- λz (elimination rate constant) [2, 15]: 0.0331 h⁻¹
- patients with ≥50% reduction in VF allele burden ([3]; 48 evaluable VF-positive patients, last available follow-up): 21 (44%) patients (%)
- subjects with ≥50% decrease in JAK2V617F ([3]; baseline >20%, 18 subjects who completed 12 cycles): 7 (39%) subjects (%)
- JAK2V617F allele burden compared to pre-study baseline ([3]; end of cycle 6 and cycle 12, Wilcoxon matched-pair signed-rank test): significant decrease
- effect on cytokine levels (IL-6, IL-8, IL-2, TNF-α) [4]: no significant changes; also recorded: minimal effect; also recorded: no consistent changes
- changes in attributes (appearance, assay, impurities) in capsule shells [5]: No appreciable changes
- compatibility with fillers and lubricants: changes in attributes (appearance, assay, impurities) [6]: no incompatibilities
- permeability [7]: on the borderline between “low” and “high” permeability
- serum EPO and to a lesser extent TPO levels relative to baseline [8]: increases
